From US20200009253A1, “Compositions and Methods for Treatment of Infections” (Thompson Cooper Laboratories, LLC, priority 2011, published 2020)

Assays:
[1] = Solubility of carbamide peroxide in alcohols; assay type: physicochemical; settings: solid carbamide peroxide
Experimental: On a weight basis, 18.5% carbamide peroxide, 3.0% glycerol, 73.1% ethyl alcohol, 4.5% luviskol VA 64-polyvinylpyrrolidone vinyl alcohol, and 0.9% Klucel HF, were mixed in a vessel and allowed to thicken. The source of peroxide was solid carbamide peroxide, which is only soluble in isopropyl alcohol to about 10% and in ethanol to about 20%, therefore luviskol VA 64-polyvinylpyrrolidone vinyl alcohol is added to supersaturate the carbamide peroxide, and glycerol is added to retain the carbamide peroxide in solution following ethanol evaporation.

[2] = Sensation (tingling, burning, pain) under the nail after application; assay type: in vivo, human; settings: 3% in a solvent system containing a highly volatile solvent; after 15-30 minutes
Excerpt: (§1) Lower levels of hydrogen peroxide in the present invention can be used to treat infected skin or mucous membranes such as canker sores. Depending on the concentration of peroxide, penetration through a nail will also elicit sensations in certain subjects ranging from tingling to burning, which may be mildly painful at higher concentrations. Embodiments of the invention comprising an optional local anesthetic may be appropriate when using such higher concentrations. Effectiveness may be measured by a reduction of, or complete eradication of, the nail fungus over the course of treatment, and further evidenced by healthy nail growth. On a weight basis, 9% hydrogen peroxide, 21% water, 69.5% isopropyl alcohol, and 0.5% Klucel HF (a thickening agent, a hydroxypropylcellulose polymer), were mixed in a vessel and allowed to thicken. (The source of the peroxide was a 30% peroxide solution.) The composition could easily be brushed onto a nail surface, which dried in approximately 1 minute, and the residual polymer could subsequently be removed by washing in water. […] On a weight basis, 6% hydrogen peroxide, 6% water, 87.5% isopropyl alcohol, and 0.5% Klucel HF, were mixed in a vessel and allowed to thicken. […] The resulting composition differed from that of Example 2a in that there was no isopropyl alcohol or any other highly volatile solvent, the quantity thereof being replaced with water. […]

[3] = Whitening effect of the nail after brushing the composition onto the nail surface (shows peroxide penetration); assay type: in vivo, human
Excerpt: as §1

| Structure (SMILES) | solubility in ethanol [1] | solubility in isopropyl alcohol [1] | sensation after application [2] | visual effect on normal finger nail ([3]; 3% aqueous concentration, thin film via a brush) | visual effect on nail ([3]; same amount and 3% concentration in a solvent system containing a highly volatile solvent) |
| --- | --- | --- | --- | --- | --- |
| NC(N)=O.OO [carbamide peroxide] | about 20% | about 10% |  |  |  |
| OO [hydrogen peroxide, Hydrogen peroxide] |  |  | a slight tingling sensation may sometimes be felt | no visual effect | signs of whiteness |
